Paper PMC10045593, “Ubiquitin-Specific Proteases as Potential Therapeutic Targets in Bladder Cancer—In Vitro Evaluation of Degrasyn and PR-619 Activity Using Human and Canine Models” (Biomedicines, 2023)
Several values for one entry are separate records, joined by “and”; a condition that tells them apart may be missing. Equal values may be shown once.

Legend:
[1] = system: Bcl-xl in all cell lines (SV-HUC-1, T24, K9TCC-PU-NK, RDSVS-TCC1); assay: Western blot for Bcl-xl expression; assay type: cell-based, human and canine; conditions: 24 h
Protocol: (§1) Western blot was performed to assess the expression of USP5, USP9X, and USP14 in analyzed cell lines. After 24 h of incubation with increasing concentrations of Degrasyn and PR-619, the expression of proteins involved in apoptosis (Bcl-2 and Bcl-xl) and a marker of DNA damage (γH2A.X) was also evaluated. Briefly, cells were rinsed with cold phosphate-buffered saline (PBS), suspended in lysis buffer (50 mM Tris-HCl pH 7.5, 100 mM NaCl, 1% NP-40, protease inhibitors set), and incubated for 20 min on ice. Subsequently, after centrifuging at 10,000 rpm at 4 °C for 12 min, sodium dodecyl sulfate (SDS) sample buffer was added to […]. After boiling for 5 min at 95 °C, the samples were subjected to SDS-polyacrylamide gel electrophoresis on 8–15% gel. For USP5, USP9X, USP14, γH2A.X, Bcl-2, and Bcl-xl expression analysis, transfers onto nitrocellulose membranes were performed using a Semidry Transfer Cell or wet transfer method (Bio-Rad, Hercules, CA, USA). After transfer, the membranes were blocked with 1% casein in TBS (or 3% BSA for γH2Ax) at room temperature for 1 h. […]

RDSVS-TCC1 cell line [2] = assay: Ki-67 flow cytometry proliferation assay; assay type: cell-based, canine; conditions: RDSVS-TCC1, 24 h, p < 0.05
Protocol: (§2) For the cell proliferation assay, cells were plated in 100 mm cell culture plates. When the cultures reached 60% confluence, the media were discarded from the wells and replaced with culture media only or media with added compounds (Degrasyn, PR-619) with increasing concentrations for 24 h. The growth medium was then removed from the wells, the cells were rinsed twice with PBS, and 0.25% trypsin-EDTA was added to detach the cells. After 5 min of incubation at 37 °C and 5% CO2, the fresh culture medium was added to inactivate the trypsin, and cells were collected in flow cytometry tubes. Cells were then labeled using the Ki-67 Proliferation Kit BD Pharmingen(BD Biosciences) according to the manufacturer’s instructions and analyzed using a flow cytometer (Cytoflex, Beckman Coulter). Unstained control cells were used for gating to determine the percentage of the proliferation of the Ki-67-positive cells in the samples. Percentages of proliferating (Ki-67 positive) cells were used to calculate the means ± SD for each cell line. The presented results were obtained from three independent experiments.

K9TCC-PU-NK cell line [3] = assay: Ki-67 flow cytometry proliferation assay; assay type: cell-based, canine; conditions: 24 h, p < 0.05
Protocol: as §2

γH2AX in T24 cell line = assay: Western blot for γH2AX (DNA damage); assay type: cell-based, human; conditions: T24, 24 h
Protocol: as §1

RDSVS-TCC1 cell line [4] = assay: Caspase 3/7 activation flow cytometry assay; assay type: cell-based, canine; conditions: RDSVS-TCC1, 24 h
Protocol: (§3) Subsequently, to assess caspases 3/7 activation, the cells were incubated with medium alone or with increasing concentrations of compounds (Degrasyn, PR-619) in conditions similar to the previous test. Following cell collection, the cells were twice PBS-washed and stained in accordance with the manufacturer’s instructions. For active caspase 3/7 detection, CellEventCaspase-3/7 Green Detection Reagent Solution was added to the samples. The cells were then suspended 1 more time in the wash buffer after being washed twice. For flow cytometric analysis, a flow cytometers (FACS Calibur, Becton Dickinson, Biosciences, San Jose, CA, USA; CytoFlex, Beckman Coulter, CA, USA) were used, and CellQuest 3.lf (Becton Dickinson, San Jose, CA, USA) and CytExpert 2.4 (Beckman Coulter, CA, USA) software were used for data analysis. The presented results were obtained from three independent experiments.

K9TCC-PU-NK cell line [5] = assay: Caspase 3/7 activation flow cytometry assay; assay type: cell-based, canine; conditions: 24 h
Protocol: as §3

SV-HUC-1 cell line [6] = assay: MTT cell proliferation assay; assay type: cell-based, human; conditions: for cells killed at the highest concentration: SV-HUC-1, MTT, highest concentration used (20 μM)
Protocol: (§4) Cell proliferation was determined using the 3-(4,5-dimethylthiazol-2-yl)-2,5-diphenyltetrazolium bromide (MTT) assay (Sigma-Aldrich, Steinheim, Germany). Cells were plated at a density of 1 × 10^5 cells per mL in 96-well plates (Thermo Fisher Scientific, Roskilde, Denmark) and allowed to attach overnight. Subsequently, Degrasyn and PR-619 were added in increasing concentrations (0.6, 1.25, 2.5, 5, 10, and 20 μM). After incubation for 24, 48, and 72 h with either the compounds or in the medium alone, 20 μL of MTT solution (5 mg/mL) was added to each well. After an additional 4 h, 80 μL of the lysis buffer (225 mL DMF, 67.5 g SDS, and 275 mL distilled water) was added to each well. After dissolving the content, the absorbance was measured at a […] of 570 nm using a spectrophotometric microplate reader Spark (Tecan). The values were obtained from 3 independent experiments (different plates, different days). Based on the results, the concentration that inhibited 50% of the cell proliferation (IC50) was calculated for all incubation intervals.

T24 cell line [7] = assay: MTT cell proliferation assay; assay type: cell-based, human; conditions: for cells killed at the highest concentration: T24, MTT, highest concentration used (20 μM)
Protocol: as §4

SV-HUC-1 cell line [8] = assay: Ki-67 flow cytometry proliferation assay; assay type: cell-based, human; conditions: SV-HUC-1, 24 h, p < 0.05
Protocol: as §2

T24 cell line [9] = assay: Ki-67 flow cytometry proliferation assay; assay type: cell-based, human; conditions: T24, 24 h, p < 0.05
Protocol: as §2

[10] = only highest concentration 5 µM
[11] = 5 μM (highest concentration of Degrasyn)
[12] = only highest concentration 10 µM
[13] = 10 μM (highest concentration of PR-619)

CCC[C@H](NC(=O)/C(C#N)=C/c1cccc(Br)n1)c1ccccc1 [Degrasyn]
Bcl-xl expression ([1]; all cell lines, 5 μM): slightly reduced
percentage of Ki-67 positive cells (as compared to control) (RDSVS-TCC1 cell line [2]; [10]): significantly decreased
percentage of Ki-67 positive cells (as compared to control) (K9TCC-PU-NK cell line [3]; [10]): significantly decreased
expression of γH2AX (γH2AX in T24 cell line; 2.5 µM and 5 µM): high expression
percentage of cells with active caspase 3/7 (RDSVS-TCC1 cell line [4]; 1.25 μM): 5.9%
percentage of cells with active caspase 3/7 (RDSVS-TCC1 cell line [4]; 2.5 μM): 11.7%
percentage of cells with active caspase 3/7 (RDSVS-TCC1 cell line [4]; [11]): 22.5 ± 4.3% and 22.5%
percentage of cells with active caspase 3/7 (K9TCC-PU-NK cell line [5]; 1.25 μM): 5.4%
percentage of cells with active caspase 3/7 (K9TCC-PU-NK cell line [5]; 2.5 μM): 7.1%
percentage of cells with active caspase 3/7 (K9TCC-PU-NK cell line [5]; [11]): 11.9 ± 1.8% and 11.9%
IC50 (SV-HUC-1 cell line [6]; SV-HUC-1, 24 h exposure, MTT, read-out: IC50 (concentration that inhibited 50% of the cell proliferation)): 2330 nM
cells killed at the highest concentration (SV-HUC-1 cell line [6]): ~100%
IC50 (T24 cell line [7]; T24, 24 h exposure, MTT, read-out: IC50 (concentration that inhibited 50% of the cell proliferation)): 3070 nM
cells killed at the highest concentration (T24 cell line [7]): ~100%
percentage of Ki-67 positive cells (as compared to control) (SV-HUC-1 cell line [8]; [10]): significantly decreased
percentage of Ki-67 positive cells (as compared to the control) (T24 cell line [9]; 2.5–5 µM): significantly decreased

N#CSc1cc(SC#N)c(N)nc1N [PR-619]
Bcl-xl expression ([1]; analyzed cell lines, increasing concentrations): No clearly visible changes
percentage of Ki-67 positive cells (as compared to control) (RDSVS-TCC1 cell line [2]; [12]): significantly decreased
percentage of Ki-67 positive cells (as compared to control) (K9TCC-PU-NK cell line [3]; [12]): significantly decreased
amount of γH2AX (γH2AX in T24 cell line; highest concentrations of the drug): only a slight visible increase
percentage of cells with active caspase 3/7 (RDSVS-TCC1 cell line [4]; 2.5 μM): 6.1%
percentage of cells with active caspase 3/7 (RDSVS-TCC1 cell line [4]; [11]): 12.9%
percentage of cells with active caspase 3/7 (RDSVS-TCC1 cell line [4]; [13]): 16.2 ± 7.4% and 16.2%
percentage of cells with active caspase 3/7 (K9TCC-PU-NK cell line [5]; 2.5 μM): 6.4%
percentage of cells with active caspase 3/7 (K9TCC-PU-NK cell line [5]; [11]): 9.9%
percentage of cells with active caspase 3/7 (K9TCC-PU-NK cell line [5]; [13]): 13.3 ± 3.3% and 13.2%
cells killed at the highest concentration (SV-HUC-1 cell line [6]): ~100%
cells killed at the highest concentration (T24 cell line [7]): ~100%
percentage of Ki-67 positive cells (as compared to control) (SV-HUC-1 cell line [8]; [12]): significantly decreased
percentage of Ki-67 positive cells (as compared to the control) (T24 cell line [9]; 5–10 µM): significantly decreased
